Measured values published in patent US20020041897A1, “Compositions for sustained release of antineoplastic taxanes, and methods of making and using the same” (priority 2000, published 2002).

Experiment: Plasma concentrations of paclitaxel as a function of dose after intraperitoneal administration to dogs
Details: dog
Method: (30%) microspheres were administered intraperitoneally to dogs at doses of 90, 120, 150, 180 and 210 mg/kg; paclitaxel was administered at doses of 9 mg/kg and 12 mg/kg to other dogs. Each dose group comprised one female dog. Plasma samples were taken from each dog at various time points. Samples were analyzed using a LC/MS/MS method. Results are depicted in FIG. 10.
Following administration of 90 and 120 mg/kg doses of […] (30%) microspheres, plasma samples were collected through 63 days. At doses of 150 and 180 mg/kg, the last sample was obtained at 35 days. The last sampling time for the 210 mg/kg dose was 28 days.

CC(=O)O[C@H]1C(=O)[C@@]2(C)[C@H]([C@H](OC(=O)c3ccccc3)[C@]3(O)C[C@H](OC(=O)[C@H](O)[C@@H](NC(=O)c4ccccc4)c4ccccc4)C(C)=C1C3(C)C)[C@]1(OC(C)=O)CO[C@@H]1C[C@@H]2O [paclitaxel]
toxicity outcome (in vivo, ip, 12 mg/kg): euthanized before the completion of the study due to toxicity | decline of plasma paclitaxel concentration (intraperitoneal, 9 mg/kg): declined in a biphasic manner | time at which maximum plasma paclitaxel concentration was reached (intraperitoneal, 9 mg/kg): 0.5 days | time post dose beyond which plasma paclitaxel could not be detected (intraperitoneal, 9 mg/kg): ≤ 7 days
